According to patent US11891703B2, “Corrosion inhibition package” (DORF KETAL CHEMICALS FZE, priority 2017, dated 2024):

Legend:
[1] = death can occur in 2-3 minutes; cited from earlier work
[2] = cited from earlier work
[3] = Corrosion test of acid compositions with corrosion inhibition package on 1018 steel coupons; conditions: Table 3, 1.2:1 HCl-Urea, 50% dilution in seawater, 90° C., 6 hours, 1% package + 1% CI-1A
Description: Various types of steel alloy coupons were subjected to corrosion testing in the presence of conventional, synthetic and modified acid compositions using corrosion inhibitor components according to preferred embodiments of the present invention at various temperatures. Coupons of various grades of steel alloys (indicated in each table) were exposed to the various listed compositions for various periods of time at varying temperatures.
The following corrosion testing outlined in the tables below for a number of different corrosion inhibition packages according to the present invention in the presence of a synthetic or modified acid composition was carried out diluted with saline water (in most cases) at various temperatures for various durations of exposure. Depending on the intended use/application of an acidic fluid composition comprising a corrosion inhibitor package according to the present invention, a desirable result would be one where the lb/ft^2 corrosion number is at or below 0.05. A more desirable would be one where the corrosion (in lb/ft^2) is at or below 0.02. Generally, seawater has the deleterious effect of potentiating corrosion, consequently corrosion inhibition packages which follow the guidelines or regulations for offshore oil production are highly desirable for operators. Where applicable the fluids (acid compositions) were diluted as indicated.

[4] = cited from earlier work; remark: listed apart in the source

**Q.** With Cl [Hydrogen chloride gas, Hydrogen chloride] as the compound, how does the “level at which death can occur” value [1] read?
**A.** Its value is 1300-2000 ppm.

**Q.** For CCCCCCOCCOCCOCCO [NOVEL® 6-3 Ethoxylate, CH3 (CH2)4CH2(OCH2CH2)3OH], which solubility in hydrocarbons [2] is on record?
**A.** Its solubility in hydrocarbons is “soluble”.

**Q.** What about the solubility in water [2] of the same compound?
**A.** The solubility in water was “sparingly soluble”.

**Q.** Which “Corrosion lb/ft2” value [3] does the source give for O=CC=Cc1ccccc1 [ZA, Cinnamaldehyde] here?
**A.** Its value is 0.008 lb/ft2.

**Q.** And the “Corrosion rate Mils/yr” value [3]?
**A.** The value was 296.053 Mils/yr.

**Q.** And the Corrosion rate mm/year [3]?
**A.** The Corrosion rate mm/year was 7.52 mm/year.

**Q.** And the Wt loss [3]?
**A.** The Wt loss was 0.168 g.

**Q.** Which “performance on Cr-13 alloys (pitting)” value [4] does the source give for C#CCO [propargyl alcohol] here?
**A.** The value was “poor performance”.
